Data on 1 molecule can be found in patent US20170166870A1, “HUMAN HEPATIC 3D CO-CULTURE MODEL AND USES THEREOF” (Vrije Universiteit Brussel, priority 2014, published 2017).

Several values for one entry are separate records, joined by “and”; a condition that tells them apart may be missing. Equal entries are not always repeated. Where two headings read alike, the source gives them in different places.

One data set has as its system 3D HepaRG mono-culture. Briefly: APAP toxicity assay, cell viability by ATP (Cell titer Glo). As to conditions: Homo sapiens, 0% DMSO, read-out: APAP EC50 values (±stdev). In kind it is cell-based. As to the method:
(§1) APAP toxicity assay was performed in 3D HepaRG/co-culture as well as in 3D HepaRG monoculture. For 24 h, starting at day 20, cells were exposed to a range of APAP concentrations between 0.5 and 80 mM, keeping cells with the solvent (0.1% DMSO) as a control. For some experiments the culture medium was supplemented with 2.5 mM valproic acid (VPA sodium salt, Sigma-Aldrich) or with cytokine mixture (Raicevic et al.,2012)-interleukin (IL)-1β 25 ng/mL (Peprotech, Rocky Hill, N.J., USA), interferon (IFN)-γ 10^3 U/mL, tumor necrosis factor (TNF)-a 50 ng/mL, and IFN-α 3·10^3 U/mL (all from Prospec, Inc., East Brunswick, N.J., USA). For the recovery assay, at the end of APAP incubation, cells were washed using HepaRG culture 0% DMSO medium and kept in the same medium for 3 more days.
At the end of the incubation period, 5 spheroids per condition were pooled and lysed for RNA analyses, while the remaining spheroids per condition were lysed individually for viability analysis using the Cell titer Glo kit (Promega) for ATP measurements following the instructions of the manufacturer.

Data set [1] concerns 3D HSC mono-culture. Briefly: APAP toxicity on HSC. In kind it is cell-based, human. As to conditions: APAP 0.5-80 mM, 24 h. As to the method: as §1, with “days. […]” for “days.”
We investigated the effect of APAP on the different cell types by measurement of the two major energy producing pathways assessing at the mitochondrial functional level. For that purpose, we measured the Oxygen Consumption Rate (OCR) and Glycolisis (through proton production—Extracellular Acidification rate, ECAR) using the XF Cell Mito Stress Test Kit (Seahorse Biosciences) 0, 12 and 24 hours of APAP incubation in the three 3D cultures. […]

For another data set, the system named is 3D HepaRG. As to conditions: read-out: APAP EC50 values (±stdev), cited from earlier work.
Data set [2] concerns 3D HSC mono-culture. Briefly: mRNA expression of HSC activation markers (qPCR) after APAP incubation. The note with it: 20 mM APAP, 24h, Assays 1-3. In kind it is cell-based, human. In general terms: In qPCR the cycle at which signal appears reflects the starting amount.
Data set [3] concerns hepatic stellate cells isolated from mice. Briefly: Acute and chronic APAP liver injury model, HSC activation markers and collagen deposition. In kind it is in vivo, mouse. The source says:
Male balbC and C57BL/6 mice were used for all experiments; animals were housed in a controlled environment with free access to chow and water. The experimental protocol was approved by the institutional Animal Care and Use Committee of Vrije Universiteit Brussel, permit number 14-212-2, and National Institutes of Health principles of laboratory animal care (NIH publication 86-23, revised 1995) were followed. Acute and chronic models for liver fibrosis were used on mice of age 7-8 weeks. Acute injury was induced by a single dose of Acetaminophen (APAP) of 50; 150; 300 or 500 mg APAP/kg weight. Chronic injury was induced by repeated injections of APAP twice per week for 4 weeks. Hepatic stellate cells were collected at the end of the treatment. Isolation of stellate cells was done using FACS, based on UV-positivity. After isolation cells were not cultured, but immediately used for mRNA analysis. […] For quantitative real-time polymerase chain reaction (qPCR), GoTaq QPCR Master Mix with BRYTE green (Promega, Madison, Wis.) was used, subjected to qPCR in a 7500 real time PCR system and analysed using System SDS software v2.0.5 (Applied Biosystems), using GAPDH for normalisation. Reliability of GAPDH as house-keeping gene was determined using Normfinder (Andersen et al., 2004; Cancer Res 64(15): 5245-5250) to produce the ΔCT values. […]

For the molecule `CC(=O)Nc1ccc(O)cc1` [APAP, Acetaminophen], the EC50 in the data set on 3D HepaRG mono-culture (144 h, Day 6/7, current study) was 11.6 mM; with 3D HepaRG mono-culture (504 h, Day 21/22, current study), 11.6 ± 2.15 mM; in the data set with 3D HepaRG (Day 6/7, Gunness et al. 2013, 2% DMSO) it was 2.7 ± 7.14 mM; in the data set with 3D HepaRG (Day 21/22, Gunness et al. 2013, 2% DMSO), 10.1 ± 9.9 mM. In the data set on 3D HSC mono-culture [1], the “toxic effect on the HSC” value is given as “only observed at the highest concentrations”. The “Loxl2 mRNA fold increase” value in the data set on 3D HSC mono-culture [2] was 1.13 +/− 0.05 fold and 0.70 +/− 0.23 fold and 0.85 +/− 0.86 fold. For the same molecule, the “activation marker gene expression in isolated HSC” value in data set [3] (acute and chronic exposure, doses equal or higher than 300 mg/kg weight) is listed as “significantly increase of the activation marker gene expression”. For the same molecule, the “fibrosis profile at the protein level (collagen)” value in data set [3] (chronic exposure (4 weeks)) is “deposition of collagen around the portal area with septa formation”.

As usually defined, the EC50 is the concentration giving half of the maximal effect.
